According to PubChem BioAssay (NCI):
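Briefly, cells in 96-well plates were exposed to five compound concentrations for 48 h, and endpoints were estimated by linear interpolation. The concentration for 50% growth inhibition is given as GI50. TGI is the concentration that stops growth completely.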

Assays:
Experiment in all cases: growth of human tumour cells (NCI), 48 h
[1] = system: DMS 114 small cell lung
[2] = system: M19-MEL melanoma
[3] = system: SNB-78 CNS
[4] = system: XF 498 CNS
[5] = system: HOP-18 NSCLC
[6] = system: DMS 273 small cell lung
[7] = system: DLD-1 colon
[8] = system: MDA-N
[9] = system: RXF-631 renal

| SMILES | TGI [1] | TGI [2] | TGI [3] | TGI [4] | TGI [5] | TGI [6] | TGI [7] | TGI [8] | TGI [9] | GI50 [8] | GI50 [2] | GI50 [6] | GI50 [7] |
| --- | --- | --- | --- | --- | --- | --- | --- | --- | --- | --- | --- | --- | --- |
| CN1C(=O)CC2(C)c3cc(O)cc(Br)c3N(C)C12 (stereo not given) | > 100 µM | > 100 µM | > 100 µM | > 100 µM | > 100 µM |  |  |  |  |  |  |  |  |
| CC1(C)NC(=O)N(CCCCCCN2C(=O)NC(C)(C)C2=O)C1=O | > 100 µM | > 100 µM | > 100 µM |  | > 100 µM | > 100 µM | > 100 µM |  |  |  |  |  |  |
| N#CC(C#N)=NNc1ccc2cn[nH]c2c1 |  |  |  |  |  |  |  | > 100 µM |  |  |  |  |  |
| COc1cccc(C=O)c1C(=O)c1cc(O)ccc1O | > 48.2 µM | 79.8 µM | > 60.8 µM | > 100 µM | 76.5 µM | > 100 µM | 30.3 µM |  |  |  |  |  |  |
| COc1cc2c(NCCCCCO)ncnc2c(OC)c1OC |  |  |  |  |  |  |  | > 100 µM |  |  |  |  |  |
| N#CC1C[C@@H]2CC3(CCC2CN1C(=O)c1ccccc1)OCCO3 (stereo not given in full) | > 100 µM | > 100 µM | > 100 µM | > 100 µM | > 100 µM | > 100 µM | > 100 µM |  |  |  |  |  |  |
| CCc1ccccc1NC(=O)C(=O)C(C#N)c1ccccc1Cl (stereo not given) | > 100 µM | > 100 µM | > 100 µM | > 100 µM | > 100 µM |  | > 100 µM |  | > 100 µM |  |  |  |  |
| ClCCCSSCCCCl |  |  |  |  |  |  |  | 49.7 µM |  |  |  |  |  |
| O=C(CCC(=O)Nc1ccc(Cl)c(Cl)c1)CC(=O)c1ccc2ccccc2c1 | > 100 µM | > 100 µM | > 100 µM |  | > 100 µM | > 100 µM | > 100 µM |  | > 100 µM |  |  |  |  |
| [O-]/N=[N+](/[O-])C1CCCCC1=[N+]1CCOCC1 (stereo not given) | > 100 µM | > 100 µM | > 100 µM | > 100 µM |  |  |  |  |  |  |  |  |  |
| COC(=O)Oc1nn(C(=O)OC)c(=O)c2ccccc12 |  |  |  |  |  |  |  | > 100 µM |  |  |  |  |  |
| COc1cc2c(cc1OC)C(C#N)N(C(=O)c1ccccc1)C=C2OC(=O)c1ccccc1 (stereo not given) | 89.2 µM | 90.5 µM | 76.6 µM | 47.7 µM | 46.6 µM | 45.4 µM | > 100 µM |  |  |  |  |  |  |
| COc1ccc(-c2coc3cc(O)ccc3c2=O)cc1 |  |  |  |  |  |  |  | > 100 µM |  |  |  |  |  |
| Nc1nc(N)c(CCCCc2ccccc2)c(C=O)n1 | 34.4 µM | 29.5 µM | 81.6 µM |  | 89.2 µM | 39.1 µM | 46.2 µM |  | > 100 µM |  |  |  |  |
| COC(=O)C12CCC(C)(C)CC1C1=CCC3C4(C)CC(O)C(O)C(C)(C(=O)OC)C4CCC3(C)C1(CO)CC2 (stereo not given) |  |  |  |  |  |  |  | 26.3 µM |  |  |  |  |  |
| O=C(NC(=Nc1ccccc1)SCSC(=Nc1ccccc1)NC(=O)c1ccco1)c1ccco1 | > 100 µM | > 100 µM | > 100 µM | 66.1 µM |  | > 100 µM | > 100 µM |  | > 100 µM |  |  |  |  |
| NC1N=Nc2ccccc21 (stereo not given) | > 100 µM | > 100 µM |  | > 100 µM |  | > 100 µM | > 100 µM |  | > 100 µM |  |  |  |  |
| O=[N+]([O-])c1cc(-c2nc(=S)[nH][nH]2)ccc1O | 86.8 µM | > 100 µM | > 100 µM |  |  | > 100 µM | > 100 µM |  | > 100 µM |  |  |  |  |
| N#CCCN(CCC#N)c1ccc(/C=C(/NC(=O)c2cc([N+](=O)[O-])ccc2Cl)C(=O)NN)cc1 |  | > 100 µM | > 100 µM |  | > 100 µM | > 100 µM | > 100 µM |  |  |  |  |  |  |
| CC1CCC2C(C)C(=O)OC3OC4(C)CCC1C32OO4 (stereo not given) | > 100 µM | > 100 µM | > 100 µM | > 100 µM | > 100 µM | > 100 µM |  | > 100 µM | > 100 µM | > 100 µM |  |  |  |

| SMILES | TGI [1] | TGI [2] | TGI [3] | TGI [4] | TGI [5] | TGI [6] | TGI [7] | TGI [8] | TGI [9] | GI50 [8] | GI50 [2] | GI50 [6] | GI50 [7] |
| --- | --- | --- | --- | --- | --- | --- | --- | --- | --- | --- | --- | --- | --- |
| Cc1cc(=O)[nH]c(CNC(=O)c2ccc3ccccc3c2)n1 | > 100 µM | > 100 µM |  | > 100 µM | > 100 µM | > 100 µM | > 100 µM |  | > 100 µM |  |  |  |  |
| O=C(Cc1ccccc1[N+](=O)[O-])C(CO)c1ccccc1[N+](=O)[O-] (stereo not given) | > 100 µM | > 100 µM | > 100 µM | > 100 µM | > 100 µM | > 100 µM | > 100 µM |  |  |  |  |  |  |
| O=C(C=Nc1ccccc1C(=O)[O-])c1cccs1.O=C(C=Nc1ccccc1C(=O)[O-])c1cccs1.[Ni+2] |  | > 100 µM |  |  |  |  |  |  |  |  | 31.1 µM |  |  |
| COC(=O)C1CSC(c2csc(CCN)n2)=N1 (stereo not given) | > 100 µM | > 100 µM | > 100 µM | > 100 µM | > 100 µM | > 100 µM |  |  |  |  |  |  |  |
| Fc1cc(F)c(F)c(S)c1F |  |  |  |  |  |  |  | > 100 µM |  |  |  |  |  |
| COc1ccc2c(c1)[n+]([O-])c(-c1cccc(Cl)c1)c(N)[n+]2[O-] | 65.8 µM | > 100 µM | > 100 µM | > 100 µM | > 100 µM | > 100 µM | > 100 µM |  |  |  |  |  |  |
| O=C(O)CN(c1ccccc1)S(=O)(=O)c1cccc([N+](=O)[O-])c1 |  | > 100 µM |  | > 100 µM | > 100 µM | > 100 µM | > 100 µM |  |  |  |  |  |  |
| C/C(CCn1[nH]c(=O)ccc1=O)=N\NC(=O)C(N)=O | > 100 µM | > 100 µM | > 100 µM | > 100 µM | > 100 µM | > 100 µM | > 100 µM |  |  |  |  |  |  |
| O=C1C(=c2ccc(=C3C(=O)c4ccc([N+](=O)[O-])cc4[N+]3=O)cc2)N([O-])c2cc([N+](=O)[O-])ccc21 |  | > 100 µM | > 100 µM |  | > 100 µM | > 100 µM | > 100 µM |  |  |  | > 100 µM | > 100 µM | > 100 µM |
| O=C(O)CCCCn1ccc(=O)[nH]c1=O |  |  |  |  |  |  |  | > 100 µM |  |  |  |  |  |
| Cc1cc(Cl)nc2ccc(Cc3ccc4nc(Cl)cc(C)c4c3)cc12 |  |  |  |  |  |  |  | > 100 µM |  |  |  |  |  |
| COC(=O)C1=COC2OC3C(C(C)O)C(=O)OC34C=CC1C24 (stereo not given) |  |  |  |  |  |  |  | > 100 µM |  |  |  |  |  |
| COC(=O)[C@H]1COC(=S)N1C(=O)[C@@H](C)[C@H](O)C(C)C | > 100 µM | > 100 µM | > 100 µM | > 100 µM | > 100 µM | > 100 µM | > 100 µM |  | > 100 µM |  |  |  |  |
| O=C(COc1ccccc1Cl)N1N=C(c2ccccc2)CC1(O)c1ccccc1 (stereo not given) |  | 41.6 µM | 43.2 µM | 35.5 µM |  | 31.8 µM | 53.7 µM |  |  |  |  |  |  |
| COC(=O)Cc1c([C@@]2(C)CCCC(C)(C)C2)ccc2c1C(=O)OC2 | 20.4 µM | 69.6 µM | 37.3 µM |  | 47.1 µM | 21 µM | 12.2 µM |  | 29.4 µM |  |  |  |  |
| COc1ccc(Nc2nc3cc(C(F)(F)F)ccc3nc2-c2ccccc2)cc1OC | 41.4 µM |  | 66.7 µM | 11.2 µM |  | 21.8 µM | > 100 µM |  |  |  |  |  |  |
| OCC1OC2c3ccccc3COC2C1OCc1ccccc1 (stereo not given) | > 100 µM | > 100 µM | > 100 µM | > 100 µM | > 100 µM |  | > 100 µM |  | > 100 µM |  |  |  |  |
| c1ccc2c(c1)SC(=C1Sc3ccccc3S1)S2 | > 100 µM | > 100 µM | > 100 µM | > 100 µM | > 100 µM | > 100 µM | > 100 µM |  | > 100 µM |  |  |  |  |
| CC1CCCC(C(=O)CC2CC(=O)NC(=O)C2)C1=O (stereo not given) |  |  |  |  |  |  |  | > 100 µM |  |  |  |  |  |
